Experimental data as given in ChEMBL document CHEMBL1201862, “PubChem BioAssay data set” (2004).
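Compound exposure: 48 hours, 5 concentrations, 96-well plates. The concentration for 50% growth inhibition is given as GI50.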 The source made the active and inactive calls. Rule as the data show it: active = GI50 up to about 1.1 µM and inactive = higher.

Columns and labels:
Assay in all cases: growth of human tumour cells (NCI), 48 h
HCT-116 = tested on: HCT-116
HCT-15 = tested on: HCT-15
HOP-62 = tested on: HOP-62
HT-29 = tested on: HT-29
LOX IMVI = tested on: LOX IMVI
M14 = tested on: M14
NCI-H23 = tested on: NCI-H23
NCI-H522 = tested on: NCI-H522
OVCAR-3 = tested on: OVCAR-3
OVCAR-5 = tested on: OVCAR-5
SK-MEL-5 = tested on: SK-MEL-5
TK-10 = tested on: TK-10
U-251 = tested on: U-251
SNB-19 = tested on: SNB-19

## Nc1ncnc2c1ncn2C1OC(CSC(F)(F)F)C(O)C1O (stereo not drawn)
HCT-116
  GI50: > 100 µM (inactive)
HCT-15
  GI50: > 100 µM
HOP-62
  GI50: > 100 µM (inactive)
HT-29
  GI50: > 100 µM (inactive)
LOX IMVI
  GI50: > 100 µM (inactive)
M14
  GI50: > 100 µM (inactive)
NCI-H23
  GI50: > 100 µM (inactive)
NCI-H522
  GI50: > 100 µM (inactive)
OVCAR-3
  GI50: > 100 µM (inactive)
OVCAR-5
  GI50: > 100 µM (inactive)
SK-MEL-5
  GI50: > 100 µM (inactive)
TK-10
  GI50: > 100 µM (inactive)
U-251
  GI50: > 100 µM (inactive)

## Cc1cc2c(C=O)n[nH]c2c(C#N)c1C
HCT-116
  GI50: 30.4 µM (inactive)
HCT-15
  GI50: 32.4 µM
HOP-62
  GI50: > 100 µM (inactive)
HT-29
  GI50: 53.6 µM (inactive)
LOX IMVI
  GI50: 39.4 µM (inactive)
M14
  GI50: 35.9 µM (inactive)
NCI-H23
  GI50: 29.6 µM (inactive)
NCI-H522
  GI50: 10.4 µM (inactive)
OVCAR-3
  GI50: 48 µM (inactive)
OVCAR-5
  GI50: > 100 µM (inactive)
SK-MEL-5
  GI50: 32.6 µM (inactive)
SNB-19
  GI50: > 100 µM (inactive)
TK-10
  GI50: > 100 µM (inactive)
U-251
  GI50: 60.3 µM (inactive)

## COc1ccc2cc3n(c2c1)CCc1cc(OC)c(OC)cc1-3
HOP-62
  GI50: > 100 µM (inactive)
HT-29
  GI50: > 100 µM (inactive)
LOX IMVI
  GI50: > 100 µM (inactive)
NCI-H23
  GI50: > 100 µM (inactive)
NCI-H522
  GI50: > 100 µM (inactive)
SNB-19
  GI50: > 100 µM (inactive)
TK-10
  GI50: > 100 µM (inactive)
U-251
  GI50: 77.1 µM (inactive)

## N#CC(C(=N/O)/C(=N\O)C(C#N)c1ccccc1)c1ccccc1 (stereo not drawn)
HCT-116
  GI50: > 100 µM (inactive)
HCT-15
  GI50: > 100 µM
HOP-62
  GI50: > 100 µM (inactive)
HT-29
  GI50: > 100 µM (inactive)
LOX IMVI
  GI50: 87.3 µM (inactive)
M14
  GI50: > 100 µM (inactive)
NCI-H23
  GI50: > 100 µM (inactive)
NCI-H522
  GI50: > 100 µM (inactive)
OVCAR-3
  GI50: > 100 µM (inactive)
OVCAR-5
  GI50: > 100 µM (inactive)
SK-MEL-5
  GI50: > 100 µM (inactive)
SNB-19
  GI50: > 100 µM (inactive)
TK-10
  GI50: > 100 µM (inactive)
U-251
  GI50: > 100 µM (inactive)

## O=C(CC(=O)c1cccc([N+](=O)[O-])c1)C(=O)Nc1ccccc1
HCT-116
  GI50: > 100 µM (inactive)
HCT-15
  GI50: > 100 µM
HOP-62
  GI50: > 100 µM (inactive)
HT-29
  GI50: > 100 µM (inactive)
LOX IMVI
  GI50: > 100 µM (inactive)
M14
  GI50: > 100 µM (inactive)
NCI-H23
  GI50: > 100 µM (inactive)
NCI-H522
  GI50: > 100 µM (inactive)
OVCAR-3
  GI50: > 100 µM (inactive)
OVCAR-5
  GI50: > 100 µM (inactive)
SK-MEL-5
  GI50: > 100 µM (inactive)
SNB-19
  GI50: > 100 µM (inactive)
TK-10
  GI50: > 100 µM (inactive)
U-251
  GI50: > 100 µM (inactive)

## [N-]=[N+]=NCC(O)Cn1cnc2c(NC(=O)c3ccccc3)ncnc21 (stereo not drawn)
HCT-116
  GI50: > 100 µM (inactive)
HCT-15
  GI50: > 100 µM
HOP-62
  GI50: > 100 µM (inactive)
HT-29
  GI50: > 100 µM (inactive)
LOX IMVI
  GI50: > 100 µM (inactive)
M14
  GI50: > 100 µM (inactive)
NCI-H23
  GI50: > 100 µM (inactive)
NCI-H522
  GI50: > 100 µM (inactive)
OVCAR-5
  GI50: > 100 µM (inactive)
SK-MEL-5
  GI50: > 100 µM (inactive)
SNB-19
  GI50: > 100 µM (inactive)
TK-10
  GI50: > 100 µM (inactive)
U-251
  GI50: > 100 µM (inactive)

## CN[C@@H](C)[C@@H](N)c1ccccc1
HCT-116
  GI50: > 100 µM (inactive)
HCT-15
  GI50: > 100 µM
HT-29
  GI50: > 100 µM (inactive)
LOX IMVI
  GI50: > 100 µM (inactive)
M14
  GI50: > 100 µM (inactive)
NCI-H23
  GI50: > 100 µM (inactive)
NCI-H522
  GI50: > 100 µM (inactive)
OVCAR-3
  GI50: > 100 µM (inactive)
SK-MEL-5
  GI50: > 100 µM (inactive)
SNB-19
  GI50: > 100 µM (inactive)
TK-10
  GI50: > 100 µM (inactive)
U-251
  GI50: > 100 µM (inactive)

## C[C@@H](NC1CCCC[C@H]1O)c1ccccc1 (stereo partly drawn)
HCT-116
  GI50: > 100 µM (inactive)
HCT-15
  GI50: > 100 µM
HOP-62
  GI50: > 100 µM (inactive)
HT-29
  GI50: > 100 µM (inactive)
LOX IMVI
  GI50: > 100 µM (inactive)
M14
  GI50: > 100 µM (inactive)
NCI-H23
  GI50: > 100 µM (inactive)
NCI-H522
  GI50: > 100 µM (inactive)
OVCAR-3
  GI50: > 100 µM (inactive)
SK-MEL-5
  GI50: > 100 µM (inactive)
SNB-19
  GI50: > 100 µM (inactive)
TK-10
  GI50: > 100 µM (inactive)
U-251
  GI50: > 100 µM (inactive)

## c1ccc2c(OCCSCCCCCCCCCCSCCOc3cccc4ccccc34)cccc2c1
HCT-15
  GI50: > 100 µM
HOP-62
  GI50: > 100 µM (inactive)
HT-29
  GI50: > 100 µM (inactive)
LOX IMVI
  GI50: > 100 µM (inactive)
NCI-H23
  GI50: > 100 µM (inactive)
NCI-H522
  GI50: > 100 µM (inactive)
OVCAR-3
  GI50: > 100 µM (inactive)
OVCAR-5
  GI50: > 100 µM (inactive)
SK-MEL-5
  GI50: > 100 µM (inactive)
SNB-19
  GI50: > 100 µM (inactive)
TK-10
  GI50: > 100 µM (inactive)
U-251
  GI50: > 100 µM (inactive)
